Consider 23 compounds from patent US9568466B2, “In vitro assay for predicting renal proximal tubular cell toxicity” (priority 2012, dated 2017).

The first series deals with renal proximal tubule.
Test: not given
The conditions noted are these: in vivo; cited from earlier work.
Turning to `NC[C@H]1O[C@H](O[C@H]2[C@H](O)[C@@H](O[C@H]3O[C@H](CO)[C@@H](O)[C@H](N)[C@H]3O)[C@H](N)C[C@@H]2N)[C@H](N)C[C@@H]1O` [Compound 2, Tobramycin], the “nephrotoxicity in humans / direct damage of the renal proximal tubule” value (shortened to “nephrotoxicity in humans / direct damage”) was “nephrotoxic in humans and damage directly the renal proximal tubule”.

Take `CO[C@H]1/C=C/O[C@@]2(C)Oc3c(C)c(O)c4c(O)c(c(/C=N/N5CCN(C)CC5)c(O)c4c3C2=O)NC(=O)/C(C)=C\C=C\[C@H](C)[C@H](O)[C@@H](C)[C@@H](O)[C@@H](C)[C@H](OC(C)=O)[C@@H]1C` [Compound 3, Rifampicin]: the “nephrotoxicity in humans / direct damage” value is “nephrotoxic in humans and damage directly the renal proximal tubule”.

For the compound `COc1ccc(C[C@H](N)C(=O)N[C@H]2[C@@H](O)[C@H](n3cnc4c(N(C)C)ncnc43)O[C@@H]2CO)cc1` [Compound 5, Puromycin], the “nephrotoxicity in humans / direct damage” value was “nephrotoxic in humans and damage directly the renal proximal tubule”.

Regarding `CC(=O)OCC1=C(C(=O)O)N2C(=O)[C@@H](NC(=O)CCC[C@@H](N)C(=O)O)[C@H]2SC1` [Compound 6, Cephalosporin C], the “nephrotoxicity in humans / direct damage” value was “nephrotoxic in humans and damage directly the renal proximal tubule”.

Regarding `O=c1[nH]cc(F)c(=O)[nH]1` [Compound 7, 5-Fluorouracil], the “nephrotoxicity in humans / direct damage” value is “nephrotoxic in humans and damage directly the renal proximal tubule”.

With `O=P1(NCCCl)OCCCN1CCCl` (stereo not shown) [Compound 9, Ifosfamide], the “nephrotoxicity in humans / direct damage” value was “nephrotoxic in humans and damage directly the renal proximal tubule”.

On to `C[n+]1ccc(-c2cc[n+](C)cc2)cc1` [Compound 10, Paraquat], for which the “nephrotoxicity in humans / direct damage” value was “nephrotoxic in humans and damage directly the renal proximal tubule”.

`[Ge+4].[O-2].[O-2]` [Compound 15, Germanium(IV) oxide]: the “nephrotoxicity in humans / direct damage” value was “nephrotoxic in humans and damage directly the renal proximal tubule”.

With `[Cl][Au]` [Compound 16, Gold(I) chloride], the “nephrotoxicity in humans / direct damage” value was “nephrotoxic in humans and damage directly the renal proximal tubule”.

With `C=CC[C@@H]1/C=C(\C)C[C@H](C)C[C@H](OC)[C@H]2O[C@@](O)(C(=O)C(=O)N3CCCC[C@H]3C(=O)O[C@H](/C(C)=C/[C@@H]3CC[C@@H](O)[C@H](OC)C3)[C@H](C)[C@@H](O)CC1=O)[C@H](C)C[C@@H]2OC` [Compound 19, Tacrolimus], the “nephrotoxicity in humans / direct damage” value is “nephrotoxic in humans and damage directly the renal proximal tubule”.

On to `CC1=C2C(=CO[C@H](C)[C@H]2C)C(O)=C(C(=O)O)C1=O` [Compound 21, Citrinin], for which the “nephrotoxicity in humans / direct damage” value was “nephrotoxic in humans and damage directly the renal proximal tubule”.

With `CCOc1ccc(NC(C)=O)cc1` [Compound 24, Phenacetin], the “nephrotoxicity in humans / direct damage” value was “nephrotoxic in humans, but do not damage directly the renal proximal tubule”.

In the case of `[Cl-].[Li+]` [Compound 28, Lithium chloride], the “nephrotoxicity in humans / direct damage” value is on record as “nephrotoxic in humans, but do not damage directly the renal proximal tubule”.

As to `Cl[C@H]1[C@H](Cl)[C@@H](Cl)[C@@H](Cl)[C@H](Cl)[C@H]1Cl` [Compound 29, Lindane], the “nephrotoxicity in humans / direct damage” value is “nephrotoxic in humans, but do not damage directly the renal proximal tubule”.

With `OCCO` [Compound 30, Ethylene glycol], the “nephrotoxicity in humans / direct damage” value was “nephrotoxic in humans, but do not damage directly the renal proximal tubule”.

As for `CC(C)[C@H](N)C(=O)OCCOCn1cnc2c(=O)[nH]c(N)nc21` [Compound 31, Valacyclovir], the “nephrotoxicity in humans / direct damage” value was “nephrotoxic in humans, but do not damage directly the renal proximal tubule”.

As to `CCC[C@@H]1C[C@@H](C(=O)N[C@@H]([C@H]2O[C@H](SC)[C@H](O)[C@@H](O)[C@H]2O)[C@@H](C)O)N(C)C1` [Compound 32, Lincomycin], the “nephrotoxicity in humans / direct damage” value is recorded as “nephrotoxic in humans, but do not damage directly the renal proximal tubule”.

`NCC(=O)O` [Compound 35, Glycine]: the “nephrotoxicity in humans / direct damage” value is “non-nephrotoxic in humans”.

Consider `C[C@@H]1C[C@H]2[C@@H]3CCC4=CC(=O)C=C[C@]4(C)[C@@]3(F)[C@@H](O)C[C@]2(C)[C@@]1(O)C(=O)CO` [Compound 36, Dexamethasone], for which the “nephrotoxicity in humans / direct damage” value is reported as “non-nephrotoxic in humans”.

Consider `COc1ccc2[nH]cc(CCNC(C)=O)c2c1` [Compound 37, Melatonin], for which the “nephrotoxicity in humans / direct damage” value was “non-nephrotoxic in humans”.

As for `N[C@@H](Cc1ccc(O)c(O)c1)C(=O)O` [Compound 38, Levodopa (DOPA)], the “nephrotoxicity in humans / direct damage” value is “non-nephrotoxic in humans”.

For the compound `N[C@@H](Cc1cc(I)c(Oc2ccc(O)c(I)c2)c(I)c1)C(=O)O` [Compound 39, Triiodothyronine], the “nephrotoxicity in humans / direct damage” value was “non-nephrotoxic in humans”.

In the case of Gentamicin, the “nephrotoxicity in humans / direct damage” value is “nephrotoxic in humans and damage directly the renal proximal tubule”.

The test system of a further series is human primary renal proximal tubular cells (HPTC). Kind of series: HPTC exposed to test compound, nuclear staining and F-actin detection, morphology and cell numbers. The settings on record: HPTC isolated from fresh human kidney samples; 0.2 mg/ml; 16 hours.
As for Gentamicin, the “cell numbers (number of cell nuclei)” value was “decrease in cell numbers” and the “morphological changes (F-actin)” value is “morphological changes”.
